Where “and” joins values, the source holds several entries; their conditions need not be identical. Equal entries are not always repeated. Inconclusive results and toxic doses are left out. Rule as the data show it: active = T/C of 150% or more; inactive = T/C below 125%.
System: L1210 leukemia ip in BDF1 mice, survival T/C
Test: NCI In Vivo Anticancer Drug Screen. Data for tumor model L1210 Leukemia (intraperitoneal) in B6D2F1 (BDF1) mice
Conditions: endpoint: mean survival time, higher = longer survival
In short: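 Transplantable tumor model; survival measured in treated vs vehicle control mice. Value = treated/control.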

[1] = dose: 50.0 mg/kg/injection, schedule: Q01DX009 (ip), vehicle: saline
[2] = dose: 100.0 mg/kg/injection, schedule: Q01DX009 (ip), vehicle: saline
[3] = dose: 200.0 mg/kg/injection, schedule: Q01DX009 (ip), vehicle: saline
[4] = dose: 100.0 mg/kg/injection, schedule: Q04DX002 (ip), vehicle: Klucel (hydroxypropylcellulose) (HPC)
[5] = dose: 200.0 mg/kg/injection, schedule: Q04DX002 (ip), vehicle: Klucel (hydroxypropylcellulose) (HPC)
[6] = dose: 400.0 mg/kg/injection, schedule: Q04DX002 (ip), vehicle: Klucel (hydroxypropylcellulose) (HPC)

Measured: T/C

OC1C2CCC(CC2)C1O (centres undefined)
inactive: dose: 4.5 mg/kg/injection, schedule: Q01DX009 (ip), vehicle: saline with Tween-80 92 % of control | dose: 4.5 mg/kg/injection, schedule: Q04DX003 (ip), vehicle: other 108 % of control | dose: 9.0 mg/kg/injection, schedule: Q01DX009 (ip), vehicle: saline with Tween-80 92 % of control | dose: 9.0 mg/kg/injection, schedule: Q04DX003 (ip), vehicle: other 101 % of control | dose: 9.75 mg/kg/injection, schedule: Q01DX001 (ip), vehicle: other 104 % of control | dose: 18.0 mg/kg/injection, schedule: Q01DX009 (ip), vehicle: saline with Tween-80 86 % of control | dose: 18.0 mg/kg/injection, schedule: Q04DX003 (ip), vehicle: other 106 % of control | dose: 18.5 mg/kg/injection, schedule: Q01DX001 (ip), vehicle: other 107 % of control

CC1CN=C(c2ccc(O)cc2)S1 (centres undefined)
inactive: [1] 102 % of control | dose: 100.0 mg/kg/injection, schedule: Q01DX005 (ip), vehicle: saline 104 % of control | [2] 106 % of control | dose: 100.0 mg/kg/injection, schedule: Q04DX002 (ip), vehicle: saline 96 % of control | dose: 200.0 mg/kg/injection, schedule: Q01DX005 (ip), vehicle: saline 104 % of control | [3] 102 % of control | dose: 200.0 mg/kg/injection, schedule: Q04DX002 (ip), vehicle: saline 104 % of control | dose: 400.0 mg/kg/injection, schedule: Q04DX002 (ip), vehicle: saline 107 % of control

CN(C)CCCn1c2nc(=O)[nH]c(=O)c-2nc2cc(Cl)c(Cl)cc21
inactive: dose: 4.0 mg/kg/injection, schedule: Q01DX Z (ip), vehicle: methylcellulose (MC) 117 % of control

CCCN(C(=O)N([Si](C)(C)C)S(=O)(=O)c1ccc(Cl)cc1)[Si](C)(C)C
inactive: [1] 103 % of control | [2] 96 % of control

NS(=O)(=O)c1ccc(NC(=S)NC(=O)c2cccc([N+](=O)[O-])c2)cc1
inactive: dose: 50.0 mg/kg/injection, schedule: Q04DX003 (ip), vehicle: saline with Tween-80 97 % of control | dose: 100.0 mg/kg/injection, schedule: Q01DX001 (ip), vehicle: saline with Tween-80 96 % of control | dose: 100.0 mg/kg/injection, schedule: Q01DX009 (ip), vehicle: saline with Tween-80 96 % of control and 101 % of control | dose: 100.0 mg/kg/injection, schedule: Q04DX002 (ip), vehicle: saline with Tween-80 90 % of control | dose: 100.0 mg/kg/injection, schedule: Q04DX003 (ip), vehicle: saline with Tween-80 97 % of control and 105 % of control | dose: 200.0 mg/kg/injection, schedule: Q01DX001 (ip), vehicle: saline with Tween-80 101 % of control | dose: 200.0 mg/kg/injection, schedule: Q01DX009 (ip), vehicle: saline with Tween-80 103 % of control and 89 % of control | dose: 200.0 mg/kg/injection, schedule: Q04DX002 (ip), vehicle: saline with Tween-80 104 % of control | dose: 200.0 mg/kg/injection, schedule: Q04DX003 (ip), vehicle: saline with Tween-80 94 % of control | dose: 400.0 mg/kg/injection, schedule: Q01DX001 (ip), vehicle: saline with Tween-80 86 % of control | dose: 400.0 mg/kg/injection, schedule: Q01DX009 (ip), vehicle: saline with Tween-80 96 % of control and 89 % of control | dose: 400.0 mg/kg/injection, schedule: Q04DX002 (ip), vehicle: saline with Tween-80 87 % of control | dose: 400.0 mg/kg/injection, schedule: Q04DX003 (ip), vehicle: saline with Tween-80 89 % of control

COC(=O)CCN(c1cccc(Cl)c1)S(=O)(=O)c1ccc(C)cc1
inactive: dose: 100.0 mg/kg/injection, schedule: Q01DX001 (ip), vehicle: saline 98 % of control | dose: 200.0 mg/kg/injection, schedule: Q01DX001 (ip), vehicle: saline 92 % of control | dose: 400.0 mg/kg/injection, schedule: Q01DX001 (ip), vehicle: saline 98 % of control

Cc1nccc2cc3c(cc12)c1ccccc1n3C
inactive: dose: 37.5 mg/kg/injection, schedule: Q04DX003 (ip), vehicle: Klucel (hydroxypropylcellulose) (HPC) 105 % of control | dose: 75.0 mg/kg/injection, schedule: Q04DX003 (ip), vehicle: Klucel (hydroxypropylcellulose) (HPC) 111 % of control | dose: 150.0 mg/kg/injection, schedule: Q04DX003 (ip), vehicle: Klucel (hydroxypropylcellulose) (HPC) 105 % of control | dose: 300.0 mg/kg/injection, schedule: Q04DX003 (ip), vehicle: Klucel (hydroxypropylcellulose) (HPC) 95 % of control

CSc1ccc(OC(=O)Nc2cccc3ccccc23)cc1C
inactive: [4] 101 % of control | [5] 101 % of control | [6] 104 % of control

COc1ccc(C(=O)/C=C2\C(=O)Nc3ccc(Br)cc32)cc1
inactive: [4] 107 % of control | [5] 100 % of control | [6] 93 % of control

N=C(N)c1ccc(OCCCCCCOc2ccc(C(=N)N)cc2I)cc1
inactive: dose: 6.25 mg/kg/injection, schedule: Q01DX Z (oral), vehicle: saline 103 % of control | dose: 12.5 mg/kg/injection, schedule: Q01DX Z (oral), vehicle: saline 103 % of control | dose: 25.0 mg/kg/injection, schedule: Q01DX Z (oral), vehicle: saline 97 % of control | dose: 50.0 mg/kg/injection, schedule: Q01DX Z (oral), vehicle: saline 101 % of control | dose: 100.0 mg/kg/injection, schedule: Q01DX Z (oral), vehicle: saline 100 % of control | dose: 200.0 mg/kg/injection, schedule: Q01DX Z (oral), vehicle: saline 100 % of control

COc1cc2ccc3c(c2cc1OC)CNCC3
inactive: [1] 104 % of control | [2] 104 % of control | dose: 100.0 mg/kg/injection, schedule: Q04DX003 (ip), vehicle: saline 116 % of control | [3] 88 % of control | dose: 200.0 mg/kg/injection, schedule: Q04DX003 (ip), vehicle: saline 102 % of control

c1ccc(N2CCNCC2)nc1
inactive: dose: 5.0 mg/kg/injection, schedule: Q01DX009 (ip), vehicle: acetone 100 % of control | dose: 10.0 mg/kg/injection, schedule: Q01DX001 (ip), vehicle: acetone 96 % of control | dose: 10.0 mg/kg/injection, schedule: Q01DX009 (ip), vehicle: acetone 97 % of control | dose: 10.0 mg/kg/injection, schedule: Q04DX003 (ip), vehicle: saline 109 % of control | dose: 20.0 mg/kg/injection, schedule: Q01DX001 (ip), vehicle: acetone 95 % of control | dose: 20.0 mg/kg/injection, schedule: Q01DX009 (ip), vehicle: acetone 95 % of control | dose: 20.0 mg/kg/injection, schedule: Q04DX003 (ip), vehicle: saline 98 % of control | dose: 40.0 mg/kg/injection, schedule: Q01DX001 (ip), vehicle: acetone 106 % of control | dose: 40.0 mg/kg/injection, schedule: Q04DX003 (ip), vehicle: saline 101 % of control

S=C(Nc1ccc(Cl)c(Cl)c1)SCc1ccccc1
inactive: dose: 75.0 mg/kg/injection, schedule: Q04DX003 (ip), vehicle: saline 101 % of control | dose: 150.0 mg/kg/injection, schedule: Q04DX003 (ip), vehicle: saline 104 % of control | dose: 300.0 mg/kg/injection, schedule: Q04DX003 (ip), vehicle: saline 101 % of control

O=C(COc1ccc(Cl)cc1C(=O)O)NCc1cccc(NC(=O)Nc2ccc(S(=O)(=O)F)cc2)c1
inactive: dose: 100.0 mg/kg/injection, schedule: Q01DX001 (ip), vehicle: Klucel (hydroxypropylcellulose) (HPC) 96 % of control | dose: 200.0 mg/kg/injection, schedule: Q01DX001 (ip), vehicle: Klucel (hydroxypropylcellulose) (HPC) 104 % of control | dose: 400.0 mg/kg/injection, schedule: Q01DX001 (ip), vehicle: Klucel (hydroxypropylcellulose) (HPC) 105 % of control

Cc1cccc(NC(=O)C(Cl)(Cl)Cl)c1
inactive: [4] 109 % of control | [5] 98 % of control | [6] 98 % of control
